In patent publication US20160272645A1, “Heterocyclic Compounds and Methods of Use” (MEDIVATION TECHNOLOGIES, INC., priority 2013, published 2016):

Tests used:
Format in all cases: biochemical
BMX/ETK = biological target: T1, BMX/ETK (Homo sapiens, UniProt P51813); experiment: BMX/ETK kinase profiling (BTK protocol); conditions: compound 0.3 μM; read-out: BMX/ETK @ 0.3 μM (% Inh)
T1 construct: purchased Reaction Biology Corporation
T1 sequence (P51813 1-675): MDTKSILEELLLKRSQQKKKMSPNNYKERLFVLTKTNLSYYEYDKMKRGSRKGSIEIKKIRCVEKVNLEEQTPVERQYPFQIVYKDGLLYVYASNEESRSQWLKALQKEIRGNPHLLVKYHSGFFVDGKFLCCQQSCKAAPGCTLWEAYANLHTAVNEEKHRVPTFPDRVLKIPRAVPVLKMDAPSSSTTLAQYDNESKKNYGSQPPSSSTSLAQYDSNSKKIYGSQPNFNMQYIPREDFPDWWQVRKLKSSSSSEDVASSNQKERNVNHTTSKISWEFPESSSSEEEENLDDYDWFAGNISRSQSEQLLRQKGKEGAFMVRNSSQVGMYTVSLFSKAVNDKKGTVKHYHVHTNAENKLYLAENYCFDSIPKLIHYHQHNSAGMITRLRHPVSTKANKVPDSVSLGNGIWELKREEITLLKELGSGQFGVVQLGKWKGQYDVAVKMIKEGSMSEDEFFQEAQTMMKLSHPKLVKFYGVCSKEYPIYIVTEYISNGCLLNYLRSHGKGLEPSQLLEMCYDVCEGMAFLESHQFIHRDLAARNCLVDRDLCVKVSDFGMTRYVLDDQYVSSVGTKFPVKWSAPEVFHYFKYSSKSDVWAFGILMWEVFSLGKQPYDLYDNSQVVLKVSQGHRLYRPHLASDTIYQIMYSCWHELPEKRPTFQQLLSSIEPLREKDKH
Description: (§1) BTK assay: In vitro profiling protein kinases was performed using the “HotSpot” assay platform. Briefly, specific kinase/substrate pairs along with required cofactors were prepared in reaction buffer. Compounds were prepared as 10 mM stock solutions in DMSO. Compounds were delivered into the reaction, followed 15-20 minutes later by addition of a mixture of ATP (Sigma, St. Louis Mo.) and ^33P ATP (Perkin Elmer, Waltham Mass.) to a final concentration of 10 μM. Reactions were carried out at RT for 120 min, followed by spotting of the reactions onto P81 ion exchange filter paper (Whatman Inc., Piscataway, N.J.). Unbound phosphate was removed by extensive washing of filters in 0.75% Phosphoric acid. […] ICso values and curve fits were obtained using Prism (GraphPad Software). Buffer Conditions: 20 mM Hepes (pH 7.5), 10 mM MgCl2, 1 mM EGTA, 0.02% Brij35, 0.02 mg/mL BSA, 0.1 mM Na3VO4, 2 mM DTT, 1% DMSO.
(§2) Compounds of the invention were profiled in a 10 dose IC50 panel against BMX/ETK, ITK and TEC kinases, provided by Reaction Biology Corporation, applied to the BTK protocol provided in Example B1.

PI3Kγ = biological target: T2, PI3Kγ (Homo sapiens, UniProt P48736); experiment: PI3K isoform profiling, PI3Kγ (PI3Kδ protocol); conditions: for inhibition at 0.3 µM: compound 0.3 μM, read-out: PI3Kγ @ 0.3 μM (% Inh); for IC50: 10 dose IC50
T2 construct: purchased Reaction Biology Corporation
Source text: (§3) PI3Kδ assay: The PIP3 product is detected by displacement of biotin-PIP3 from an energy transfer complex consisting of Europium labeled anti-GST monoclonal antibody, a GST-tagged pleckstrin homology (PH) domain, biotinylated PIP3 and Streptavidin-Allophycocyanin (APC). Excitation of Europium in the complex results in an energy transfer to the APC and a fluorescent emission at 665 nm. The PIP3 product formed by PI3-Kinase (h) activity displaces biotin-PIP3 from the complex resulting in a loss of energy transfer and thus a decrease in signal. This is a 3-step reaction: First, the kinase reaction with PIP2 substrate is carried out in the presence of ATP (10 μM), and the reaction is quenched with stop Solution, and then finally detect by adding Detection Mixture followed by incubation (10 min). Reaction procedure: 1) Prepare substrate in freshly prepared Reaction Buffer. 2) Deliver kinase into the substrate solution and gently mix. 3) Deliver compounds in 100% DMSO (1 μM) into the kinase reaction mixture by Acoustic technology (Echo550; nanoliter range), incubate for 10 min at RT. 4) Deliver ATP into the reaction mixture to initiate the reaction. 5) Incubate for 30 min at 30° C. 6) Quench the reaction with Stop Solution. 7) Add Detection Mixture, and incubate for overnight. 8) Measure HTRF: Ex=320 nm, ratio of Em=615 nm and Em=665 nm. The emission ratio is converted into μM PIP3 production based on PIP3 standard curves. The nonlinear regression to obtain the standard curve and IC50 values are performed using Graphpad Prism software. Assay Buffer: HEPES 50 mM (pH7.0), NaN3 0.02%, BSA 0.01%, Orthovanadate 0.1 mM, 1% DMSO. Detection buffer: HEPES 10 mM (pH7.0), BSA 0.02%, KF 0.16 M, EDTA 4 mM. Substrate: 10 μM PIP2 substrate (PI(4,5)P2).
Compounds of the invention were profiled in a 10 dose IC50 panel against PI3Kα, PI3Kβ, and PI3Kγ kinases, provided by Reaction Biology Corporation, applied to the PI3Kδ protocol provided in Example B1.

PI3Kδ = biological target: T3, PI3Kδ (Homo sapiens, UniProt O00329); experiment: PI3Kδ kinase profiling, HTRF PIP3 displacement assay (Reaction Biology); conditions: for inhibition at 1 µM: compound 1 μM, ATP 10 μM, read-out: PI3Kδ @ 1 μM (% Inh)
T3 construct: purchased Reaction Biology Corporation
Source text: Compounds of the invention were profiled in a 10 dose IC50 panel against BTK and PI3Kδ, both provided by Reaction Biology Corporation.
as §3

TEC = biological target: T4, TEC (Homo sapiens, UniProt P42680); experiment: TEC kinase profiling (BTK protocol); conditions: compound 0.3 μM; read-out: TEC @ 0.3 μM (% Inh)
T4 construct: purchased Reaction Biology Corporation
T4 sequence (P42680 1-631): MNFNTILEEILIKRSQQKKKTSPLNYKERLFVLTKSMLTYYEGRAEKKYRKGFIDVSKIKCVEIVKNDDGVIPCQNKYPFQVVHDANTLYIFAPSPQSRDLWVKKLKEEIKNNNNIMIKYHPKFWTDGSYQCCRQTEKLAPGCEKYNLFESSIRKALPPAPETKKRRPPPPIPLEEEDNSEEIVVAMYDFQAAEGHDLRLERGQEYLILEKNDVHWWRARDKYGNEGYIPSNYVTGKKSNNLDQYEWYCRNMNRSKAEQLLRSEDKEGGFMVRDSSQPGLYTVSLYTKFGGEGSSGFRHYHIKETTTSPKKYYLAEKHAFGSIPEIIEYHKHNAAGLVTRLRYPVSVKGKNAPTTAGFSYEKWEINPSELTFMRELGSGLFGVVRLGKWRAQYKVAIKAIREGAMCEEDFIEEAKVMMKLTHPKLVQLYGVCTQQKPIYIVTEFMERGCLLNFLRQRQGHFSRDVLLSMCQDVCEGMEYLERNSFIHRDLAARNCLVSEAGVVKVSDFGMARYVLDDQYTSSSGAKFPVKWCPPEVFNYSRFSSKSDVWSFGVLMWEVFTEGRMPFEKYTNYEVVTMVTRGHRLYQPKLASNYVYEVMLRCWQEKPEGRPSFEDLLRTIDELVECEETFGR
Description: as §1, §2

T2 sequence (P48736 whole entry, canonical isoform): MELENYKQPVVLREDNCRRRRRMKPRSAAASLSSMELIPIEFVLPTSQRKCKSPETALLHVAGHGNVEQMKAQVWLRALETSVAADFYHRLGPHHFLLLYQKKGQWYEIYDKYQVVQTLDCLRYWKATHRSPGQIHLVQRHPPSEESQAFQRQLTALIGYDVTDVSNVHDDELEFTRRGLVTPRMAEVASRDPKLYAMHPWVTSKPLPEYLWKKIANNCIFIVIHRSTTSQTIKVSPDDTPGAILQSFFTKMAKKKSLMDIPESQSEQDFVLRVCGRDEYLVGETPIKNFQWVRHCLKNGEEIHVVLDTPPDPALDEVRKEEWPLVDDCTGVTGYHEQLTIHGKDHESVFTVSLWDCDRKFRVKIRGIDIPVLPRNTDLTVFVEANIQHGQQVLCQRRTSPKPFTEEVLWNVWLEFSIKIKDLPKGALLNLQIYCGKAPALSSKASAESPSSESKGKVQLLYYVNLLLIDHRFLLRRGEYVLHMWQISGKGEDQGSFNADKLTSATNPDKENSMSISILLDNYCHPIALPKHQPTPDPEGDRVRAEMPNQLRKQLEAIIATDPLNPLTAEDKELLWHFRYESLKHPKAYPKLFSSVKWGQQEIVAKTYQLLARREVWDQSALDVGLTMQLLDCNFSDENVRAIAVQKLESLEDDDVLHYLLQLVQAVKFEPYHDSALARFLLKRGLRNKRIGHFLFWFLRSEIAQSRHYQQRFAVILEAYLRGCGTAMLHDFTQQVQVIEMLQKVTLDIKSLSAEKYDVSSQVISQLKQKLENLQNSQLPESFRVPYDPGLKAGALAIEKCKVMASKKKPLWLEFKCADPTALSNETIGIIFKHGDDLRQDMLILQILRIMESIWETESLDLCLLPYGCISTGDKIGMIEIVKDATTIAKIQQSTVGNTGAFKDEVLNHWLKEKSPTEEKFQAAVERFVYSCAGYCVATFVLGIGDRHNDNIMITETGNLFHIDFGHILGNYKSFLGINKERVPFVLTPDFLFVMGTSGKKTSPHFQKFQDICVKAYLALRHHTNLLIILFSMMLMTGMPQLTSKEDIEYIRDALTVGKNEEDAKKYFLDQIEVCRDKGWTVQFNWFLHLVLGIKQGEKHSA
T3 sequence (O00329 whole entry): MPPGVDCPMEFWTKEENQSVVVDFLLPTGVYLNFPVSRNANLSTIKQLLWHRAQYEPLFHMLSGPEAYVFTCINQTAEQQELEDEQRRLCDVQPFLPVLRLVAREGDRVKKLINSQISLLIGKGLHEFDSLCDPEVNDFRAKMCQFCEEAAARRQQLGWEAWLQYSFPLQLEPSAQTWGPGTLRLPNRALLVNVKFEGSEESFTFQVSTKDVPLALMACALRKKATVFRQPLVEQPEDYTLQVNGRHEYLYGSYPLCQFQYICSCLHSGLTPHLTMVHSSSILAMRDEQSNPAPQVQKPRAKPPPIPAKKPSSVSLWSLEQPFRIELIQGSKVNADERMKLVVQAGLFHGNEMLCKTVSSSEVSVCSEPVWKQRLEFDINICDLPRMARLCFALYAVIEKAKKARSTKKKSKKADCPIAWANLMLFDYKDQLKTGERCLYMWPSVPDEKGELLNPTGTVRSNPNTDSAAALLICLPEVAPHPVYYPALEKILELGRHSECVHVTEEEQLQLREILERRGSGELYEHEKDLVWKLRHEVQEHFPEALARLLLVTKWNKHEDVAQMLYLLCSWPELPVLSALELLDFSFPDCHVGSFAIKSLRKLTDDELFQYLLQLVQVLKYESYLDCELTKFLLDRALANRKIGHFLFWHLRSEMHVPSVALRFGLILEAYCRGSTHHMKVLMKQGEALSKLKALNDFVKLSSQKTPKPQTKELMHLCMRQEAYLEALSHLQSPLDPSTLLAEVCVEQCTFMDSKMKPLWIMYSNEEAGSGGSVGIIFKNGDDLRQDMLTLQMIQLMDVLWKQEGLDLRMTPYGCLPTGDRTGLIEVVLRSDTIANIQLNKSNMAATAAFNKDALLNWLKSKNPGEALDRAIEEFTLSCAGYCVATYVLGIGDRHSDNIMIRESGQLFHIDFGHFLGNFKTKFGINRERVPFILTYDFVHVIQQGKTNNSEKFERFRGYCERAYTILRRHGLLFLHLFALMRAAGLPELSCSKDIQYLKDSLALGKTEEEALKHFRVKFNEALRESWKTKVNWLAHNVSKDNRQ
T3 sequence (P27986 whole entry partner): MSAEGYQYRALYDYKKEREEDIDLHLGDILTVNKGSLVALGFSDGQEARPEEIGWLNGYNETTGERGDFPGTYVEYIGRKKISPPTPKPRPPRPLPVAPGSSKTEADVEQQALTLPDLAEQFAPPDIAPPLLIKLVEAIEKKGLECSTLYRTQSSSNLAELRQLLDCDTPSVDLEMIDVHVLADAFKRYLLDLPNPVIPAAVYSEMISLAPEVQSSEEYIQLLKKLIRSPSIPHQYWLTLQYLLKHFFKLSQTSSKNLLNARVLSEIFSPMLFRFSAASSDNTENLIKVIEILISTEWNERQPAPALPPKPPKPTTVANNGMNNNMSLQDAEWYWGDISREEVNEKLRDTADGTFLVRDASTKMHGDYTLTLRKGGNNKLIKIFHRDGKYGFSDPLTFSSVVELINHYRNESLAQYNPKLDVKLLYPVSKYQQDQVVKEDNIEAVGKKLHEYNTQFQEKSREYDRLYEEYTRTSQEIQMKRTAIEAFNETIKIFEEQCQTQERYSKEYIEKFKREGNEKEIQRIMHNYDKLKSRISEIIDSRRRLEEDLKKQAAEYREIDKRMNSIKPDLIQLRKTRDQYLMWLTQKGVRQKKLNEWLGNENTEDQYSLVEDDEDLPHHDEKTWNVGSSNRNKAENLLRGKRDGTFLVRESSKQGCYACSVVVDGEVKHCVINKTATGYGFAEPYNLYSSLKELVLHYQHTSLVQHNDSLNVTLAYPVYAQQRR

Work on Nc1ncnc2c1c(-c1cc(O)cc(F)c1)nn2CCNc1ccccc1 [Compound 1, 3-(4-amino-1-(2-(phenylamino)ethyl)-1H-pyrazolo [3,4-d]pyrimidin-3-yl)-5-fluorophenol] yielded an inhibition at 0.3 µM (BMX/ETK) of 43.5%, an inhibition at 0.3 µM (PI3Kγ) of 49.7% and an IC50 (PI3Kδ) of 10 nM. For the same compound, the inhibition at 0.3 µM (TEC) was -1.13%.
Compound C=CC(=O)N(CCn1nc(-c2cc(O)cc(F)c2)c2c(N)ncnc21)c1ccccc1 [Compound 2, N-(2-(4-amino-3-(3-fluoro-5-hydroxyphenyl)-1H-pyrazolo[3,4-d]pyrimidin-1-yl)ethyl)-N-phenylacrylamide] has an inhibition at 0.3 µM (BMX/ETK) of 98.5%, an IC50 (PI3Kγ) of 9070 nM and an inhibition at 0.3 µM (PI3Kγ) of -2.49%. It also gave an IC50 (PI3Kδ) of 51.6 nM and an inhibition at 0.3 µM (TEC) of 72.6%.
C=CC(=O)N(CCn1nc(-c2cc(O)cc(F)c2)c2c(N)ncnc21)Cc1ccccc1 [Compound 5, N-(2-(4-amino-3-(3-fluoro-5-hydroxyphenyl)-1H-pyrazolo[3,4-d]pyrimidin-1-yl)ethyl)-N-benzylacrylamide] gave an inhibition at 0.3 µM (BMX/ETK) of 92.5%, an IC50 (PI3Kγ) of 10500 nM and an inhibition at 0.3 µM (PI3Kγ) of 34.9%. The IC50 (PI3Kδ) was 13 nM and the inhibition at 0.3 µM (TEC) was 48.8%.
C=CC(=O)N(CCn1nc(-c2cc(O)cc(F)c2)c2c(N)ncnc21)Cc1ccc(F)cc1 [Compound 10, N-{2-[4-amino-3-(3-fluoro-5-hydroxyphenyl)-1H-pyrazolo [3,4-d]pyrimidin-1-yl]ethyl}-N-[(4-fluorophenyl)methyl]prop-2-enamide] was tested, and the inhibition at 0.3 µM (BMX/ETK) was 93%, the inhibition at 0.3 µM (PI3Kγ) was -3.88% and the IC50 (PI3Kδ) was 12.8 nM. The inhibition at 1 µM (PI3Kδ) was 89% and the inhibition at 0.3 µM (TEC) was 66.1%.
C=CC(=O)N(CCn1nc(-c2cc(O)cc(F)c2)c2c(N)ncnc21)Cc1ccccc1F [Compound 11, N-[2-[4-amino-3-(3-fluoro-5-hydroxy-phenyl)pyrazolo[3,4-d]pyrimidin-1-yl]ethyl]-N-[(2-fluorophenyl)methyl]prop-2-enamide] gave an inhibition at 0.3 µM (BMX/ETK) of 93.5%, an inhibition at 0.3 µM (PI3Kγ) of 21.4% and an IC50 (PI3Kδ) of 32 nM. The inhibition at 1 µM (PI3Kδ) was 82.4% and the inhibition at 0.3 µM (TEC) was 68.7%.
For C=CC(=O)N(CCn1nc(-c2cc(O)cc(F)c2)c2c(N)ncnc21)Cc1ccc(Cl)cc1 [Compound 12, N-{2-[4-amino-3-(3-fluoro-5-hydroxyphenyl)-1H-pyrazolo[3,4-d]pyrimidin-1-yl]ethyl}-N-[(4-chlorophenyl)methyl]prop-2-enamide], the inhibition at 0.3 µM (BMX/ETK) was 94.2%, the inhibition at 0.3 µM (PI3Kγ) was 21.5% and the IC50 (PI3Kδ) was 9.7 nM. For the same compound, the inhibition at 0.3 µM (TEC) was 71.6%.
C=CC(=O)N(CCn1nc(-c2cc(O)c(F)c(F)c2)c2c(N)ncnc21)Cc1ccc(Cl)cc1 [Compound 16, N-{2-[4-amino-3-(3,4-difluoro-5-hydroxyphenyl)-1H-pyrazolo[3,4-d]pyrimidin-1-yl]ethyl}-N-[(4-chlorophenyl)methyl]prop-2-enamide] was tested, and the inhibition at 0.3 µM (BMX/ETK) was 97.2%, the inhibition at 0.3 µM (PI3Kγ) was 14.6% and the IC50 (PI3Kδ) was 12.4 nM. For the same compound, the inhibition at 0.3 µM (TEC) was 75%.
